Measured values as given in US9433663B2, “Mobilization of hematopoietic stem cells” (Children's Hospital Medical Center, priority 2008, dated 2016).

Experiments:
[1] = system: human CD34^+ umbilical cord blood cells; test: flow cytometry of F-actin polymerization in human CD34+ HCB cells; format: cell-based; conditions: human CD34^+ HCBs, SDF-1α induced
Method: FIG. 4A. SDF-1α induced F-actin polymerization over time without or with gradient CASIN treatment, determined by MFI using FACS analysis.
To begin to study potential utility of CASIN in human hematopoietic stem cell mobilization, a series of cellular assays were carried out to determine the effects on human CD34^+ umbilical cord blood cells (HCBs). […] The effects of CASIN on human hematopoietic cell mobilization was therefore tested using a well established preclinical in vivo model (NOD/SCID-Hcb) of human hematopoietic function, where fresh CD34^+ hCB cells were transplanted into sub-lethally irradiated NOD/SCIDs by intrafemoral injection, and repopulated and maintained human hematopoietic reconstitution in the bone marrow of NOD/SCID recipient mice (FIG. 9b, FIG. 11) (Larochelle, A. et al. Nat Med 2, 1329-1337 (1996); Bhatia, M., et al. Proc Natl Acad Sci USA 94, 5320-5325 (1997)). Intravenous injections of CASIN were applied when human cells were well engrafted in the NOD/SCID recipients.

[2] = system: murine HSCs; test: Example 7 competitive repopulating assay of mobilized HSCs; format: in vivo, mice; conditions: competitive repopulating experiments, CASIN-mobilized C57Bl/6 donors
Excerpt: Although mobilization of HPC may be of use for short-term repopulation in a transplant setting, HSCs are required for long-term repopulation. To assess mobilization effect of CASIN on murine HSCs, a competitive repopulating assay is used. Basically, donor cells are harvested from peripheral blood of C57Bl/6 mice (CD45.2) after mobilization with CASIN or control medium. BM cells from nonirradiated B6.BoyJ (CD45.1) mice are served as competitor cells. Dilutions of donor blood cells from mobilized C57Bl/6 mice that contain long-term repopulating (LTR) cells compete with marrow cells of recipient B6.BoyJ mice at ratio of 3:1, 2:1, and 1:1 for engraftment in lethally-irradiated recipients. Donor chimerism is assessed using CD45 congenic markers by flow cytometry at 1, 2, 3, and 4 months posttransplantation. […] Donor chimerism again is assessed in the secondary mice based on the CD45 congenic markers.
The mobilization effect of CASIN on HSCs in comparison or combination with G-CSF is assessed under the following four mobilization groups: (1) Control medium mobilization group; (2) CASIN mobilization group; (3) G-CSF mobilization group (G-CSF: twice a day for 2 days); (4) CASIN plus G-CSF (twice a day for 2 days) mobilization group. […] The mobilization effects under different groups are analyzed based on the chimerism of donor-derived cells.

[3] = system: Lin^− BM cells; test: FACS analysis of F-actin in Lin− BM cells; format: cell-based, murine; conditions: column-selected Lin^− BM cells, dose-dependent pattern
Excerpt: To shed light on potential roles of CASIN in HSPC mobilization, the effects of CASIN on Cdc42-related cellular functions was studied, including adhesion, migration, and F-actin polymerization of progenitor cells in 32D myeloid progenitors. […] SDF-1α stimulation causes a reorganization of F-actin into a cortical ring around the cells. […] Thirdly, to gain further insight into cellular specificity and efficacy of CASIN, and also to rule out possible toxic effects by CASIN, Cdc42-involved BM progenitor cell functions were examined, including proliferation, adhesion, migration, and F-actin polymerization, in Cdc42^+/+ cells in parallel with Cdc42^−/− cells. In line with additional studies in a Cdc42 conditional knockout mouse model as described herein, Cdc42^−/− LDBM cells have increased CFU-forming progenitors compared to those of Cdc42^+/+.

[4] = system: N-RasMA93 cells; test: directional migration of N-RasMA93 leukemia cells towards SDF-1α (transwell); format: cell-based, human; conditions: in vitro
Method: FIG. 5B. Migration of leukemia cells towards SDF-1α without or with CASIN pre-treatment at doses of 5 and 10 μM was determined by transwell assays.
Like normal HSCs, their malignant counterpart, leukemia initiating cells (LICs) reside in their BM niches that provide the structural and physiological conditions supporting their survival and growth. LICs are resistant to traditional chemotherapy by interacting with their BM microenvironment, which are the culprits of leukemia relapses after a period of remission induced by chemotherapy. Detachment of LICs from their niche by CASIN would be a valuable supplementary therapy to the traditional cancer therapies (e.g., chemotherapies). First of all, in vitro effects of CASIN were examined in adhesion, migration, and F-actin polymerization of LICs, each of which is independently important for the retention of LICs in BM niches. Retroviral transduction of an MLL-AF9 fusion cDNA together with N-Ras oncogene into normal human CD34^+cord blood cells led to the establishment of cultures of N-Ras-MA93 cells that can initiate acute myeloid leukemia in NOG mice. […] To address it, a human AML model was set up by transplanting N-RasMA93 cells into NOG mice intravenously.

[5] = target: T1, Rac1 (Mus musculus, UniProt P63001); test: Rho GTPase effector pull-down in murine LDBM cells, Rac1; format: cell-based; conditions: parallel pull-down assay
T1 construct: endogenous in cells; host or cells: murine LDBM cells
Method: To analyze the effects of CASIN on the formation of active GTP-bound Cdc42, RhoA, and Rac1, effector pulldown assays were carried out as described previously. Cdc42GAP^−/− MEF, LDBM, CD34^+ hCB cells were treated with CASIN at doses of 5-20 μM in parallel with vehicle control for 2 hrs after overnight starvation, and stimulated with cytokines subsequently. And then cells were lysed in a buffer containing 20 mM Tris-HCL (pH 7.6), 100 mM NaCl, 1% Triton X-100, 10 mM MgCl2, 2 mM NaF, and Protease inhibitor cocktail (Roche Diagnostics). Lysates were incubated with GST-P21-binding domain of PAK1 for RAC1-GTP and Cdc42-GTP, and GST-RBD domain of Rhotekin for RhoA-GTP respectively. Both bound- and unbound-form of Rho GTPases were probed by immunoblotting with antibodies specific for Rac1 (BD biosciences), Cdc42 (BD biosciences), and RhoA (cell signaling).

Compound: OCCNC1CCCc2c1[nH]c1ccc(-c3ccccc3)cc21 (centres unmarked) [CASIN]
- F-actin polymerization [1]: inhibited F-actin polymerization of these human progenitors dose-dependently
- engraftment of donor derived cells in recipient B6.BoyJ mice [2]: significant engraftment of donor derived cells in a dilution-dependent pattern
- F-actin reorganization in response to SDF-1α [3]: impaired
- directional migration capacity of N-RasMA93 cells [4]: significantly impaired
- Rac1 activity [5]: no effects
